Some test systems named below: 786-0; A498; COLO 205; EKVX; HCC 2998; MOLT-4; NCI-H460; NCI-H522; OVCAR-3; RXF 393; SF-268; SF-295; SN12C; SNB-19; U-251; SW-620.
Holding throughout (assay): DTP human tumour cell line panel, 48 h

Here are results for 14 compounds from ChEMBL document CHEMBL1201862, “PubChem BioAssay data set” (2004).

Structures are written as SMILES.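 Exposure lasted 48 hours, with cells grown in 96-well plates and compounds tested at five concentrations. GI50 is the concentration that inhibits growth by half.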 Activity calls are given as the source filed them. Rule as the data show it: active = GI50 up to about 1.1 µM and inactive = higher.

Turning to `C[Si](C)(C)C#C[I+]c1ccccc1`, the GI50 in the assay with 786-0 is 45.6 µM (inactive); in the assay on A498, > 100 µM (inactive); in the assay with COLO 205, 17.7 µM (inactive); in the assay on EKVX it was 52.1 µM (inactive); in the assay on HCC 2998 it was > 100 µM (inactive); in the assay on MOLT-4, 29.4 µM (inactive). Besides, the GI50 with NCI-H460 is > 100 µM (inactive); in the assay with NCI-H522, 9.4 µM (inactive); in the assay with OVCAR-3, 32.7 µM (inactive); in the assay on RXF 393, 47.4 µM (inactive); with SF-268 it was 45.9 µM (inactive); with SF-295, > 100 µM (inactive). Further, the GI50 in the assay on SN12C was 21.7 µM (inactive); in the assay with SNB-19, > 100 µM (inactive); in the assay with U-251, 38 µM (inactive).

With `CCN/C(=N\Nc1ccc([N+](=O)[O-])cc1)P(=O)(OC(C)C)OC(C)C`, the GI50 in the assay on 786-0, in the assay with A498, with COLO 205, in the assay on EKVX, in the assay with HCC 2998 and in the assay on MOLT-4 was > 100 µM (inactive) throughout. Also, the GI50 with NCI-H460, in the assay with NCI-H522, in the assay on OVCAR-3, in the assay on SF-268, in the assay on SN12C and in the assay with SNB-19 was > 100 µM (inactive) throughout. Also, the GI50 with SW-620 and in the assay with U-251 was > 100 µM (inactive) in each case.

With `Cc1cnc2c(c1)C(=O)C1=C(OC(C)(C)CC1O)C2=O` (configuration not stated), the GI50 was 14.9 µM (inactive) in the assay on 786-0; 16.7 µM (inactive) in the assay on COLO 205; 20.7 µM (inactive) with EKVX; 17.7 µM (inactive) in the assay on HCC 2998; 15.9 µM (inactive) in the assay on MOLT-4; 11 µM (inactive) in the assay with NCI-H460. Moreover, the GI50 with NCI-H522 was 15.8 µM (inactive); in the assay on OVCAR-3, 11.1 µM (inactive); in the assay on RXF 393, 15.5 µM (inactive); in the assay with SF-268, 14.9 µM (inactive); in the assay with SF-295, 13.3 µM (inactive); with SN12C, 15.6 µM (inactive). Also, the GI50 is 16.7 µM (inactive) in the assay with SNB-19, 14.7 µM (inactive) in the assay with SW-620 and 15.2 µM (inactive) in the assay on U-251.

In the case of `CCC(=O)OC[n+]1ccc2c(C)c3[nH]c4ccccc4c3c(C)c2c1`, the 50% growth inhibitory concentration (GI50) is 0.767 µM (active) in the assay with 786-0; 1.21 µM (inactive) with A498; 0.323 µM (active) with COLO 205; 0.0358 µM (active) in the assay on MOLT-4; 0.033 µM (active) in the assay with NCI-H460; 1.33 µM (inactive) with OVCAR-3. Also, the GI50 is 0.552 µM (active) in the assay on RXF 393; 0.552 µM (active) in the assay on SF-268; 0.532 µM (active) with SF-295; 0.401 µM (active) in the assay with SN12C; 1.6 µM (inactive) in the assay with SNB-19; 0.173 µM (active) in the assay with SW-620. Also, the concentration for 50% growth inhibition (GI50) with U-251 was 0.397 µM (active).

Consider `O=C(/C=C1\Nc2ccccc2C(=O)N1c1ccc(Cl)cc1)c1ccncc1`, for which the GI50 is 71.6 µM (inactive) in the assay on 786-0; 75.7 µM (inactive) in the assay with A498; > 100 µM (inactive) in the assay with COLO 205; > 100 µM (inactive) with EKVX; > 100 µM (inactive) with MOLT-4; > 100 µM (inactive) in the assay on NCI-H460. The GI50 in the assay on NCI-H522 is > 100 µM (inactive); with OVCAR-3, > 100 µM (inactive); with SF-268, > 100 µM (inactive); in the assay with SF-295, 65 µM (inactive); with SN12C, > 100 µM (inactive); with SNB-19, > 100 µM (inactive). Also, the GI50 in the assay on SW-620 and with U-251 was > 100 µM (inactive) throughout.

Take `O=C(c1ccccc1)C1CCCCN1C(=O)c1ccccc1` (configuration not stated): the GI50 with 786-0, with A498, in the assay on COLO 205, in the assay with HCC 2998, with MOLT-4 and with NCI-H460 was > 100 µM (inactive) in each case. Besides, the GI50 with NCI-H522, in the assay with OVCAR-3, in the assay on RXF 393, with SF-268, in the assay with SN12C and in the assay on SNB-19 was > 100 µM (inactive) in each case. The GI50 in the assay on SW-620 and with U-251 was > 100 µM (inactive) in each case.

As to `N#CC1C(C#N)C2(c3ccccc3)C(c3ccccc3)=NN(c3ccccc3)CC12` (configuration not stated), the GI50 in the assay with 786-0 was > 100 µM (inactive); in the assay with A498, > 100 µM (inactive); with EKVX it was > 100 µM (inactive); in the assay on HCC 2998 it was > 100 µM (inactive); with MOLT-4, 16.8 µM (inactive); in the assay on NCI-H460, > 100 µM (inactive). Further, the GI50 in the assay with OVCAR-3, in the assay on RXF 393, in the assay on SF-295, in the assay with SN12C, in the assay on SNB-19 and in the assay with SW-620 was > 100 µM (inactive) each time. Further, the GI50 in the assay on U-251 was > 100 µM (inactive).

Take `CC(C)(C)c1cc(C(=O)O)c2c(c1)C(=O)OC2(c1ccccc1)c1ccccc1C(=O)O` (configuration not stated): the GI50 is > 100 µM (inactive) with 786-0; 41.1 µM (inactive) with COLO 205; > 100 µM (inactive) with EKVX; 0.467 µM (active) with HCC 2998; > 100 µM (inactive) in the assay on MOLT-4; > 100 µM (inactive) with NCI-H460. Further, the 50% growth inhibitory concentration (GI50) in the assay with NCI-H522 is 0.206 µM (active); in the assay on OVCAR-3, > 100 µM (inactive); in the assay with RXF 393, > 100 µM (inactive); in the assay with SF-268, > 100 µM (inactive); with SF-295 it was > 100 µM (inactive); with SN12C, > 100 µM (inactive). The GI50 is > 100 µM (inactive) in the assay with SNB-19, > 100 µM (inactive) in the assay with SW-620 and 0.0448 µM (active) with U-251.

Regarding `O=C1c2ccccc2N2OC3C4CCC(C4)C3C12c1ccccc1` (configuration not stated), the GI50 in the assay on 786-0 is > 100 µM (inactive); with A498 it was > 100 µM (inactive); in the assay with COLO 205 it was > 100 µM (inactive); in the assay with EKVX, > 100 µM (inactive); with HCC 2998, > 100 µM (inactive); in the assay with MOLT-4, 32.1 µM (inactive). The GI50 in the assay with NCI-H522 was 36 µM (inactive); in the assay on RXF 393 it was 16.5 µM (inactive); in the assay with SF-268 it was > 100 µM (inactive); with SF-295, > 100 µM (inactive); in the assay with SN12C it was 86.9 µM (inactive); in the assay on SNB-19, > 100 µM (inactive). Also, the GI50 in the assay on SW-620 was > 100 µM (inactive); with U-251, 86.5 µM (inactive).

Take `Cc1nc2ccccc2c(=O)n1/N=C(\N=N\c1ccccc1Cl)c1ccccc1`: the GI50 is 19 µM (inactive) with 786-0; 27.5 µM (inactive) with A498; 21.5 µM (inactive) with COLO 205; 20.8 µM (inactive) with EKVX; > 10 µM (inactive) in the assay on MOLT-4; 23.9 µM (inactive) in the assay with NCI-H460. For the same compound, the GI50 in the assay on NCI-H522 is 19.1 µM (inactive); in the assay on RXF 393, 23 µM (inactive); in the assay with SF-268 it was 46.3 µM (inactive); in the assay with SNB-19, 74.1 µM (inactive); in the assay with SW-620, 22.7 µM (inactive); in the assay with U-251 it was 26.7 µM (inactive).

For the compound `O=C1C2C=CC(C2)C(c2ccc(O)cc2)N1O` (configuration not stated), the GI50 in the assay on 786-0, in the assay with A498, with COLO 205, in the assay on EKVX, in the assay on HCC 2998 and in the assay on MOLT-4 was > 100 µM (inactive) throughout. Moreover, the GI50 in the assay with NCI-H460, in the assay on NCI-H522, in the assay on OVCAR-3, in the assay with SF-268, in the assay on SF-295 and with SN12C was > 100 µM (inactive) in each case. The GI50 in the assay with SNB-19, with SW-620 and with U-251 was > 100 µM (inactive) throughout.

In the case of `CNC(=S)NNC(=O)c1c(C)nc2sccn12`, the GI50 with 786-0, with COLO 205, with EKVX, in the assay on HCC 2998, in the assay with MOLT-4 and in the assay with NCI-H460 was > 100 µM (inactive) each time. Besides, the GI50 in the assay on NCI-H522, in the assay on OVCAR-3, in the assay with RXF 393, with SF-268, in the assay with SF-295 and in the assay on SN12C was > 100 µM (inactive) each time. Moreover, the GI50 was 99.5 µM (inactive) in the assay with SNB-19, > 100 µM (inactive) in the assay with SW-620 and > 100 µM (inactive) with U-251.

For `COC(=O)[C@@]12C3=NO[C@]1(C(=O)OC)C(O[Si](C)(C)C(C)(C)C)[C@H]1OC(C)(C)O[C@H]1[C@@H]2C(OCc1ccccc1)CC3` (some centres not stated), the GI50 was 70.5 µM (inactive) in the assay on 786-0; 38.3 µM (inactive) with A498; 57.1 µM (inactive) in the assay with COLO 205; 89.1 µM (inactive) in the assay on EKVX; 63.1 µM (inactive) in the assay on HCC 2998; 9.66 µM (inactive) in the assay with MOLT-4. In addition, the GI50 with NCI-H460 is 6.21 µM (inactive); in the assay with OVCAR-3 it was 46.5 µM (inactive); in the assay on SF-295 it was 37.3 µM (inactive); with SN12C, 89.7 µM (inactive); in the assay with SNB-19 it was 25.8 µM (inactive); with SW-620, > 100 µM (inactive). Also, in the assay with U-251, the GI50 is 43.5 µM (inactive).

For `COC(C(=O)NCCCCNC(=O)C(OC)c1ccccc1)c1ccccc1` (configuration not stated), the GI50 with 786-0, with A498, with COLO 205, in the assay on EKVX, with MOLT-4 and with NCI-H460 was > 100 µM (inactive) each time. In addition, the GI50 in the assay with NCI-H522, with OVCAR-3, in the assay on RXF 393, in the assay on SF-268, with SF-295 and in the assay on SN12C was > 100 µM (inactive) in each case. Also, the GI50 in the assay on SNB-19, with SW-620 and with U-251 was > 100 µM (inactive) in each case.
